According to US12434040B2, “Applicator for a microneedle array patch delivery system” (VAXESS TECHNOLOGIES, INC., priority 2023, dated 2025):

Experiments:
[1] = Rat PK studies (MAP vs subcutaneous), with body weights and application site observations; settings: rat follow up study; target dose 220 μg
Procedure: (§1) The first study was a pilot study evaluating the impact of array size and dose per needle on the PK profile. Approximately 324 μg of GLP-1 was formulated in Form 1 and delivered with a 60 vs a 90-microneedle array (FIG. 25A). […] The second study was a pilot study evaluating˜5 μg per needle formulated in either Form 1 or Form 2 each delivered with a 61-microneedle array.
(§2) A follow up PK study, with more extensive sampling, particularly in the first 48 hours, was carried out next.
(§3) A dose matched sample formulated in Tris buffer delivered by the subcutaneous route was included as a comparator. MAP dose loading and delivery was confirmed by RP-HPLC (FIG. 26A, top panels). […] The inset in FIG. 26A plots the total area under the curve (AUC) which is a measure of the total exposure to drug product for each animal, for each treatment group and serves as an estimate of bioavailability.
(§4) Male Sprague-Dawley rats (n≥5) of approximately 350-450 g and male Göttingen mini-pigs of 25-30 kg (n≥3) are used in pharmacokinetic studies. […] Individual animal plasma concentration-time values are used to calculate plasma concentration-time data for each delivery route and analyzed by noncompartmental pharmacokinetics using standard PK software.

[2] = rat, in vivo, 220 ug
Procedure: as §1, §2, §3, §4

semaglutide [SQ delivered GLP-1]
weight loss by Day 4 [1]: 10%
AUC (bioavailability) [2]: some variation in the AUC
